Assay results published in patent publication US20100286181A1, “PYRROLE DERIVATIVES WITH ANTIBACTERIAL ACTIVITY” (ASTRAZENECA AB, priority 2006, published 2010).
Values after ≈ are worked out from the molar mass of the structure shown.

Experiments:
[1] = biological target: GyrB ATPase activity (E. coli GyrA, E. coli GyrB) (Escherichia coli, UniProt P0AES6); experiment: GyrB ATPase inhibition activity assay (ammonium molybdate/malachite green phosphate detection); format: biochemical; details: figure quoted may be an average of two or more results
Procedure, shortened: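 E. coli GyrA/GyrB (2.5 nM each) with 5 μg/ml sheared DNA and 250 μM ATP in 50 mM HEPES pH 7.5, 5.5 mM MgCl2, 75 mM ammonium acetate. Released phosphate detected with ammonium molybdate/malachite green reagent. IC50 may be an average of two or more results.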

SPN548 = experiment: Bacterial susceptibility testing in liquid media (MIC), SPN548; format: cell-based; details: strain SPN548
Description: (§1) Compounds may be tested for antimicrobial activity by susceptibility testing in liquid media. Compounds may be dissolved in dimethylsulfoxide and tested in 10 doubling dilutions in the susceptibility assays. The organisms used in the assay may be grown overnight on suitable agar media and then suspended in a liquid medium appropriate for the growth of the organism. The can be was a 0.5 McFarland and a further 1 in 10 dilution can be made into the same liquid medium to prepare the final organism suspension in 100 pt. Plates can be incubated under appropriate conditions at 37° C. for 24 hrs prior to reading. The Minimum Inhibitory Concentration (MIC) may be determined as the lowest drug concentration able to reduce growth by 80% or more.

SAU516 = experiment: Bacterial susceptibility testing in liquid media (MIC), SAU516; format: cell-based; details: strain SAU516
Description: as §1

HIN446 = experiment: Bacterial susceptibility testing in liquid media (MIC), HIN446; format: cell-based; details: strain HIN446
Description: as §1

EFM073 = experiment: Bacterial susceptibility testing in liquid media (MIC), EFM073; format: cell-based; details: strain EFM073
Description: as §1

MCA445 = experiment: Bacterial susceptibility testing in liquid media (MIC), MCA445; format: cell-based; details: strain MCA445
Description: as §1

Streptococcus pneumoniae = experiment: Bacterial susceptibility testing in liquid media (MIC), Streptococcus pneumoniae; format: cell-based; details: against Streptococcus pneumoniae; lowest concentration reducing growth by 80% or more, 37° C., 24 hrs
Description: as §1

| Compound | IC50 [1] [µM] | MIC SPN548 (SPN548) [µg/mL] | MIC SAU516 (SAU516) [µg/mL] | MIC HIN446 (HIN446) [µg/mL] | MIC EFM073 (EFM073) [µg/mL] | MIC MCA445 (MCA445) [µg/mL] | MIC (Streptococcus pneumoniae) [µg/mL] |
| --- | --- | --- | --- | --- | --- | --- | --- |
| Cc1[nH]c(C(=O)NC2CCN(c3ncc(C(=O)O)s3)CC23OCCCO3)c(Cl)c1Cl (centres unmarked) [Example 16, 2-(11-{[(3,4-Dichloro-5-methyl-1H-pyrrol-2-yl)carbonyl]amino}-1,5-dioxa-8-azaspiro[5.5]undec-8-yl)-1,3-thiazole-5-carboxylic acid] | < 0.00977 | < 0.063 | 2 (≈ 4.21 µM) | 1 (≈ 2.1 µM) | 1 (≈ 2.1 µM) | 0.13 (≈ 0.273 µM) | – |
| COC1(OC)CN(c2ncc(C(=O)O)s2)CCC1NC(=O)c1[nH]c(C)c(Cl)c1Cl (centres unmarked) [Example 20, 2-(4-{[(3,4-Dichloro-5-methyl-1H-pyrrol-2-yl)carbonyl]amino}-3,3-dimethoxypiperidin-1-yl)-1,3-thiazole-5-carboxylic acid] | < 0.0671 | 0.13 (≈ 0.281 µM) | 2 (≈ 4.32 µM) | 1 (≈ 2.16 µM) | 2 (≈ 4.32 µM) | 0.5 (≈ 1.08 µM) | – |
| COC(=O)c1cnc(N2CCC(NC(=O)c3[nH]c(C)c(Cl)c3Cl)C3(C2)OCCO3)s1 (centres unmarked) [Example 1, Methyl 2-(10-{[(3,4-dichloro-5-methyl-1H-pyrrol-2-yl)carbonyl]amino}-1,4-dioxa-7-azaspiro[4.5]dec-7-yl)-1,3-thiazole-5-carboxylate] | 0.463 | – | – | – | – | – | 1 (≈ 2.1 µM) |
